Assay results reported in patent publication US7183295B2, “PPAR-activating compound and pharmaceutical composition comprising the compound” (Kowa Co., Ltd., priority 2003, dated 2007).
Like-named read-outs stand apart in the source and are kept apart here.

Assays:
Assay type in all cases: cell-based
[1] = biological target: T1, human PPARα (166–467aa) ligand binding domain (Homo sapiens, UniProt Q07869); assay: PPAR transfection (Gal4-LBD luciferase reporter) assay, hPPARα; details: read-out: hPPAR, EC50 α (agonist activity)
T1 construct: human PPARα (166–467aa); expressed in transfected cells; host or cells: COS-7
T1 sequence (Q07869 166-467): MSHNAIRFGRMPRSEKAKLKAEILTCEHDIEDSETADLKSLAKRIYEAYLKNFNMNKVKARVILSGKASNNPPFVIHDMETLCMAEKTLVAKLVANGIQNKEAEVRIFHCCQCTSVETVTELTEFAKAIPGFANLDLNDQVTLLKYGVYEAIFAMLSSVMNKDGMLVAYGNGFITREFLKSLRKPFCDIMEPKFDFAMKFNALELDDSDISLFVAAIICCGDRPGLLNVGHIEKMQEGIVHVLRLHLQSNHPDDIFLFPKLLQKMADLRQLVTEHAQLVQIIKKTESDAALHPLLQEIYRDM
Protocol: (§1) COS-7 cells, which is African green monkey kidney cell line, were used for all transfection assays. Cells were cultured in DMEM medium supplemented with 10% fetal bovine serum, glutamic acid, and an antibiotic under humidified 5% CO2 atmosphere.
(§2) Cells were transfected by lipofectamine reagent with a mixture containing expression plasmid, firefly luciferase reporter plasmid. And a β-galactosidase expression plasmid used as an internal control for transfection efficiency.
(§3) Transiently transfected cells were incubated with DMEM with 0.2% FCS with or without compound. And after 16 hours, luciferase activity and β-galactosidase activity of cell lysate were measured.
(§4) Each compound was dissolved in and diluted with dimethyl sulfoxide (DMSO), and the DMSO concentration of the DMEM medium (containing 0.2% serum) was adjusted to 0.1% upon treatment of cells.

[2] = biological target: T2, human PPARγ (182–505aa) ligand binding domain (Homo sapiens, UniProt P37231); assay: PPAR transfection (Gal4-LBD luciferase reporter) assay, hPPARγ; details: for EC50: read-out: hPPAR, EC50 γ (agonist activity)
T2 construct: γ(182–505aa); expressed in transfected cells; host or cells: COS-7
T2 sequence (P37231 182-505): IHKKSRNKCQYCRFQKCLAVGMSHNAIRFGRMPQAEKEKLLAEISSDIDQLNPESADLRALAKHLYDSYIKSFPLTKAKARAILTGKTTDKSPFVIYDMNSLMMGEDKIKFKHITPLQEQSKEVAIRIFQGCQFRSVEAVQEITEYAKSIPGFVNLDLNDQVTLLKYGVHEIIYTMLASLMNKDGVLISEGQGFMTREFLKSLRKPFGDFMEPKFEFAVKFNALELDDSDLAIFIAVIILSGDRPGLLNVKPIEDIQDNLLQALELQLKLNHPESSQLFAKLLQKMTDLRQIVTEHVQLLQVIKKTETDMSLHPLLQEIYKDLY
Protocol: as §1, §2, §3, §4

[3] = biological target: T3, human PPARδ (137–441aa) ligand binding domain (Homo sapiens, UniProt Q03181); assay: PPAR transfection (Gal4-LBD luciferase reporter) assay, hPPARδ; details: for EC50: read-out: hPPAR, EC50 δ (agonist activity)
T3 construct: δ (137–441aa); expressed in transfected cells; host or cells: COS-7
T3 sequence (Q03181 137-441): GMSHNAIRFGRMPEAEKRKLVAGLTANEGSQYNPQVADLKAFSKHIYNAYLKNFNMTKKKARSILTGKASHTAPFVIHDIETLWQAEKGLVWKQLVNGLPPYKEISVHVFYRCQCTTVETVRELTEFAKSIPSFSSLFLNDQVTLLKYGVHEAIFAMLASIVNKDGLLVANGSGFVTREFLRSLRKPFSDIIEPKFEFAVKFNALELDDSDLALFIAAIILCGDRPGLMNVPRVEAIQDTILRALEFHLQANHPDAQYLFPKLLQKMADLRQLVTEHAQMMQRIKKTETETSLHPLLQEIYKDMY
Protocol: as §1, §2, §3, §4

[4] = transfected COS-7 cells, 16 hours, luciferase activity
[5] = at 10-fold concentration of EC50 value in activation of hPPARα, ratio to DMSO control

| Structure (SMILES) | EC50 [1, 4] | EC50 [2, 4] | EC50 [3, 4] | activation factor, hPPARγ (FIGS. 1 to 5) [2, 5] | activation factor, hPPARδ (FIGS. 1 to 5) [3, 5] | EC50 [1] | EC50 [2] | EC50 [3] |
| --- | --- | --- | --- | --- | --- | --- | --- | --- |
| CCC(Oc1cccc(CCN(CCCOc2ccccc2)c2nc3ccccc3o2)c1)C(=O)O (stereo not drawn) [Example 38, 2-[3-[2-[N-(Benzoxazol-2-yl)-N-3-phenoxypropyl]aminoethyl]phenoxy]butyric acid] | 50 nM | 1500 nM | 1400 nM |  |  |  |  |  |
| CC(Oc1cccc(CN(CCCOc2ccccc2)c2nc3cc4c(cc3o2)OCO4)c1)C(=O)O (stereo not drawn) [Example 159] | 9 nM | > 10000 nM | 1500 nM |  |  |  |  |  |
| Cc1ccc2oc(N(CCCOc3ccccc3)Cc3cccc(OC(C)C(=O)O)c3)nc2c1 (stereo not drawn) [Example 155] | 11 nM | > 10000 nM | 1800 nM |  |  |  |  |  |
| CCC(Oc1cccc(CN(CCCOc2ccc(F)cc2)c2nc3ccc(F)cc3o2)c1)C(=O)O (stereo not drawn) [Example 140] | 7 nM | 1300 nM | 1800 nM |  |  |  |  |  |
| CC(Oc1cccc(CN(CCCOc2ccc(F)cc2)c2nc3cc4c(cc3o2)OCO4)c1)C(=O)O (stereo not drawn) [Example 169] | 4 nM | > 10000 nM | 2000 nM |  |  |  |  |  |
| CC(Oc1cccc(CN(CCCC(=O)c2ccccc2)c2nc3ccccc3o2)c1)C(=O)O (stereo not drawn) [Example 93, 2-[3-[[N-(Benzoxazol-2-yl)-N-(4-oxo-4-phenylbutyl)]aminomethyl]phenoxy]propionic acid] | 9 nM | > 10000 nM | 5100 nM |  |  |  |  |  |
| CC(C)(Oc1ccc(CCCN(CCc2ccccc2)c2nc3ccccc3s2)cc1)C(=O)O [Compound A] | 100 nM | 200 nM | 400 nM | strongly activate | strongly activate |  |  |  |
| Cc1ccc2oc(N(CCCOc3ccc(F)cc3)Cc3cccc(OC(C)C(=O)O)c3)nc2c1 (stereo not drawn) [Example 153] | 3 nM | 2500 nM | 1400 nM |  |  |  |  |  |
| CCC(Oc1cccc(CCN(CCOc2ccccc2)c2nc3ccccc3o2)c1)C(=O)O (stereo not drawn) [Example 41, 2-[3-[2-[N-(Benzoxazol-2-yl)-N-2-phenoxyethyl]aminoethyl]phenoxy]butyric acid] | 40 nM | 2000 nM | > 50000 nM |  |  |  |  |  |
| CCC(Oc1cccc(CN(CCCOc2ccccc2)c2nc3ccccc3o2)c1)C(=O)O (stereo not drawn) [Example 13, 2-[3-[[N-(Benzoxazol-2-yl)-N-3-phenoxypropyl]aminomethyl]phenoxy]butyric acid] | 10 nM | > 50000 nM | 2000 nM |  |  |  |  |  |
| CCC(Oc1cccc(CN(CCOc2ccc(F)cc2)c2nc3ccccc3o2)c1)C(=O)O (stereo not drawn) [Example 3, 2-[3-[[N-(Benzoxazol-2-yl)-N-2-(4-fluorophenoxy)ethyl]aminomethyl]phenoxy]butyric acid] | 10 nM | > 100000 nM | 1800 nM |  |  |  |  |  |
| CCC(Oc1cccc(CN(CCCOc2ccccc2)c2nc3cc(F)ccc3o2)c1)C(=O)O (stereo not drawn) [Example 132] |  |  |  |  |  | 3 nM | 1000 nM | 1100 nM |
| C[C@@H](Oc1cccc(CN(CCCOc2ccccc2)c2nc3ccccc3o2)c1)C(=O)O [Example 88, (R)-2-[[3-[N-(Benzoxazol-2-yl)-N-3-phenoxypropyl]aminomethyl]phenoxy]propionic acid] | 11 nM | 2900 nM | 3700 nM |  |  |  |  |  |
| CCC(Oc1cccc(CN(CCCOc2ccccc2)c2nc3cc4c(cc3o2)OCO4)c1)C(=O)O (stereo not drawn) [Example 158] | 5 nM | 1600 nM | 1100 nM |  |  |  |  |  |
| COc1ccc(OCCCN(Cc2cccc(OC(C)C(=O)O)c2)c2nc3cc(Cl)ccc3o2)cc1 (stereo not drawn) [Example 204] | 10 nM | 1600 nM | 1800 nM |  |  |  |  |  |
| CC[C@@H](Oc1cccc(CN(CCCOc2ccc(OC)cc2)c2nc3ccccc3o2)c1)C(=O)O [Example 85, (R)-2-[[3-[N-(Benzoxazol-2-yl)-N-3-(4-methoxyphenoxy)propyl]aminomethyl]phenoxy]butyric acid] |  | 1100 nM | 1600 nM |  |  |  |  |  |
| COc1ccc(OCCCN(Cc2cccc(OC(C)C(=O)O)c2)c2nc3ccccc3s2)cc1 (stereo not drawn) [Example 96] | 1 nM | 1100 nM | 1200 nM |  |  |  |  |  |
| CC(Oc1cccc(CN(CCCOc2ccccc2)c2nc3ccccc3o2)c1)C(=O)O (stereo not drawn) [Example 9, 2-[3-[[N-(Benzoxazol-2-yl)-N-3-phenoxypropyl]aminomethyl]phenoxy]propionic acid] | 10 nM | 1200 nM | 2400 nM |  |  |  |  |  |
| CCC(Oc1cccc(CCN(CCCOc2ccccc2)c2nc3cc(F)ccc3o2)c1)C(=O)O (stereo not drawn) [Example 39, 2-[3-[2-[N-(5-Fluorobenzoxazol-2-yl)-N-3-phenoxypropyl]aminoethyl]phenoxy]butyric acid] | 80 nM | 9100 nM | 1600 nM |  |  |  |  |  |
| CC(Oc1cccc(CCN(CCOc2ccc(F)cc2)c2nc3cc(F)ccc3o2)c1)C(=O)O (stereo not drawn) [Example 35, 2-[3-[2-[N-(5-Fluorobenzoxazol-2-yl)-N-2-(4-fluorophenoxy)ethyl]aminoethyl]phenoxy]propionic acid] | 20 nM | 1200 nM | 1600 nM |  |  |  |  |  |
| CCC(Oc1cccc(CN(CCOc2ccc(F)cc2)c2nc3ccc(F)cc3o2)c1)C(=O)O (stereo not drawn) [Example 183] | 4 nM | 400 nM | 2400 nM |  |  |  |  |  |
| CC(Oc1cccc(CN(CCCOc2ccc3c(c2)OCO3)c2nc3ccccc3o2)c1)C(=O)O (stereo not drawn) [Example 157] | 4 nM | 1200 nM | 1300 nM |  |  |  |  |  |
| CC(Oc1cccc(CN(CCOc2ccccc2)c2nc3ccccc3o2)c1)C(=O)O (stereo not drawn) [Example 18, 2-[3-[[N-(Benzoxazol-2-yl)-N-2-phenoxyethyl]aminomethyl]phenoxy]propionic acid] | 70 nM | 1200 nM | > 100000 nM |  |  |  |  |  |
| CCC(Oc1cccc(CCN(CCCOc2ccc(Cl)cc2)c2nc3cc(OC)ccc3o2)c1)C(=O)O (stereo not drawn) [Example 52, 2-[3-[2-[N-3-(4-Chlorophenoxy)propyl-N-(5-methoxybenzoxazol-2-yl)]aminoethyl]phenoxy]butyric acid] | 10 nM | 2000 nM | 400 nM |  |  |  |  |  |
| CCC(Oc1cccc(CN(CCOc2ccccc2)c2nc3ccccc3o2)c1)C(=O)O (stereo not drawn) [Example 24, 2-[3-[[N-(Benzoxazol-2-yl)-N-2-phenoxyethyl]aminomethyl]phenoxy]butyric acid] | 30 nM | 1400 nM | 2300 nM |  |  |  |  |  |
| COc1ccc(OCCCN(Cc2cccc(O[C@H](C)C(=O)O)c2)c2nc3ccccc3o2)cc1 [Example 82, (R)-2-[3-[[N-(Benzoxazol-2-yl)-N-3-(4-methoxyphenoxy)propyl]aminomethyl]phenoxy]propionic acid] | 2 nM | 1200 nM | 2500 nM |  |  |  |  |  |
| CCC(Oc1cccc(CCN(CCOc2ccc(OC)cc2)c2nc3ccccc3o2)c1)C(=O)O (stereo not drawn) [Example 45, 2-[3-[2-[N-(Benzoxazol-2-yl)-N-2-(4-methoxyphenoxy)ethyl]aminoethyl]phenoxy]butyric acid] | 10 nM | 6300 nM | 1800 nM |  |  |  |  |  |
| COc1ccc2oc(N(CCOc3ccc(F)cc3)CCc3cccc(OC(C)C(=O)O)c3)nc2c1 (stereo not drawn) [Example 37, 2-[3-[2-[N-2-(4-Fluorphenoxy)ethyl-N-(5-methoxybenzoxazol-2-yl)]aminoethyl]phenoxy]propionic acid] | 70 nM | 4200 nM | 1500 nM |  |  |  |  |  |
| CCC(Oc1cccc(CN(CCCOc2ccc(OC)cc2)c2nc3ccccc3o2)c1)C(=O)O (stereo not drawn) [Example 14, 2-[3-[[N-(Benzoxazol-2-yl)-N-3-(4-methoxyphenoxy)propyl]aminomethyl]phenoxy]butyric acid] |  | > 100000 nM | 1700 nM |  |  |  |  |  |
